Results reported in patent publication US10836792B2, “Retro-inverso peptide inhibitors of cell migration, extracellular matrix and endothelial invasion by tumor cells” (ISTITUTO NAZIONALE TUMORI IRCCS “FONDAZIONE G. PASCALE”, priority 2016, dated 2020).
Non-standard residues stand in square brackets, D forms with d. Residues, ends and D or L forms follow the SMILES beside them. Aib = CC(C)(N)C(=O)O

Target: T1, FPR1 (Homo sapiens, UniProt P21462)
T1 construct: expressed in transfected cells; host or cells: rat basophilic leukaemia RBL-2H3/ETFR cells
T1 sequence (P21462 1-350): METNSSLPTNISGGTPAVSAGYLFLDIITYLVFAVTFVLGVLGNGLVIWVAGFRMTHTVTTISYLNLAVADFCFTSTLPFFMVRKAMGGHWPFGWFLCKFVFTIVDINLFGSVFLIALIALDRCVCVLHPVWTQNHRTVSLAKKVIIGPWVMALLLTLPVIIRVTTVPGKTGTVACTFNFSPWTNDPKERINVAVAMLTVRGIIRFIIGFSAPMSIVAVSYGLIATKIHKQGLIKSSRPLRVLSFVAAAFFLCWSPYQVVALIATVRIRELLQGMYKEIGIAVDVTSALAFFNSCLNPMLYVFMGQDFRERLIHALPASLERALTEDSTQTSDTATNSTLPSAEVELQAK
Assay: Competition with FITC-fMLF binding to RBL-2H3/ETFR cells stably expressing FPR1
Settings: 100 nM pre-incubation 60 min at 4° C., then 10 nM FITC-fMLF
Experimental: Cell-associated fluorescence was measured using a fluorescence plate reader. The results are depicted in FIG. 3. […] To evaluate the effect of RI-3 on agonist-dependent FPR1 internalization, binding experiments were performed at 37° C. and cells were visualized using a Zeiss 510 Meta LSM microscope. Original magnifications: 630×. Scale bar: 10 μm.

How did the “inhibition of binding of fluorescent agonist (FITC-fMLF) to RBL-2H3/ETFR cells” value turn out when `CC(=O)N[C@H](Cc1ccc(O)cc1)C(=O)N[C@H](CCCNC(=N)N)C(=O)NC(C)(C)C(=O)N[C@H](CCCNC(=N)N)C(N)=O` [RI-3, Ac-(D)-Tyr-(D)-Arg-Aib-(D)-Arg-NH2] (Ac-[dY][dR][Aib][dR]-NH2) was run?
The value was “to a similar extent as compared to fMLF”.
